The source made the active and inactive calls.
Experiments:
[1] = target: Glycogen synthase kinase-3 beta (Homo sapiens, UniProt P49841); type: functional;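 also: value comes from a broad kinome profiling panel, with GSK3B as the panel member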
LIM domain kinase 1 = LIM domain kinase 1 (Homo sapiens, UniProt P53667); assay: Navigating the Kinome. Panel member name: LIMK1; type: functional
LIM domain kinase 1, sequence (P53667 whole entry, the tested form may be a part): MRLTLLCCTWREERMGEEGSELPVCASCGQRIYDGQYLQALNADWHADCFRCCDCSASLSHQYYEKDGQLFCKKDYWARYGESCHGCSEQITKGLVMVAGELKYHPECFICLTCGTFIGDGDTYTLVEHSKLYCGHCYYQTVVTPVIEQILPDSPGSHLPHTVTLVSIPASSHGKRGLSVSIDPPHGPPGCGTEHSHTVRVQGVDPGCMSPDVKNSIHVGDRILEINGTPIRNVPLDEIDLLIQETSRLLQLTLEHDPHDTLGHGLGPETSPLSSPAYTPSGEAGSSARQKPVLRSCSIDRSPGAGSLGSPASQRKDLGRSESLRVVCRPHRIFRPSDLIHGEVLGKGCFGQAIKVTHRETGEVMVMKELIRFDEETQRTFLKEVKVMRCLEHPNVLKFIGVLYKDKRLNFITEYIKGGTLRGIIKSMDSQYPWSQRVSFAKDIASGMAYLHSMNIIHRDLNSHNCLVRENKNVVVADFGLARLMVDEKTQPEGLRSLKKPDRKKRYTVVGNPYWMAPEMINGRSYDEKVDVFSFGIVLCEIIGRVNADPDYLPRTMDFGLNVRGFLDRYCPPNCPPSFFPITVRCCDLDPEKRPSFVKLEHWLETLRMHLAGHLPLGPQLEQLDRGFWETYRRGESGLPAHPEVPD

Glycogen synthase kinase-3 beta, sequence (P49841 whole entry, the tested form may be a part): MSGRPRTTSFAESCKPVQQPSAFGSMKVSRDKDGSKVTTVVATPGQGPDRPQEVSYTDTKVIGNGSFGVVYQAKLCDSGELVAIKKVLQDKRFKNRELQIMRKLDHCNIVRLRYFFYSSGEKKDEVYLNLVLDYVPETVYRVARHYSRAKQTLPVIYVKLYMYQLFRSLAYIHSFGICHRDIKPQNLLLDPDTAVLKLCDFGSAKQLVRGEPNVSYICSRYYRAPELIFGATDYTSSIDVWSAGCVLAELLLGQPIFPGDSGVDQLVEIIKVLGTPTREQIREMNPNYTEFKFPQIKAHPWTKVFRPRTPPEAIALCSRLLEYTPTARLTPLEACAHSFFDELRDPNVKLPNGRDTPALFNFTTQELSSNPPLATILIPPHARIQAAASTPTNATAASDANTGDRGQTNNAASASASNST

COc1cccc(C(C)NC(=O)c2ccc(-c3ccncc3)s2)c1 (configuration not stated)
Ki [1]: 1.26 µM (active) | Ki (LIM domain kinase 1): > 3.16 µM (inactive)
